Experimental data taken from publication PMC7914897, “Cytotoxic Potential of a-Azepano- and 3-Amino-3,4-SeCo-Triterpenoids” (International Journal of Molecular Sciences, 2021).

What was measured:
HL-60(TB) (Leukemia) = assay: NCI-60 screen (SRB, 48 h); format: cell-based; details: Homo sapiens
Colon Cancer subpanel = assay: NCI-60 screen, subpanel; details: Homo sapiens; for IC (TGI): 48 h, read-out: TGI MG_MID; for GI50: read-out: GI50 MG_MID
U251 (CNS cancer) = assay: NCI-60 screen (SRB, 48 h); details: Homo sapiens; for GI50: U-251; for IC (TGI): U-251, 48 h, read-out: TGI
Breast cancer subpanel = assay: NCI-60 screen, subpanel; details: Homo sapiens; for IC (TGI): 48 h, read-out: TGI MG_MID; for GI50: read-out: GI50 MG_MID; for CC50: read-out: LC50 MG_MID
ACHN (Renal cancer) = assay: NCI-60 screen (SRB, 48 h); details: Homo sapiens; for IC (TGI): 48 h, read-out: TGI
RXF 393 (Renal cancer) = assay: NCI-60 screen (SRB, 48 h); details: for GI50 / IC (TGI) / CC50: Homo sapiens; for GI50: RXF 393; for IC (TGI): RXF 393, 48 h, read-out: TGI; for CC50: RXF 393, read-out: LC50
LOX IMVI (Melanoma) = assay: NCI-60 screen (SRB, 48 h); format: cell-based; details: Homo sapiens; for IC (TGI) / activity at 10 µM: 48 h; for activity at 10 µM: 1 dose 10 µM, read-out: Growth % of the Most Sensitive Cell Lines; for GI50: read-out: GI50
SNB-75 (CNS cancer) = assay: NCI-60 screen (SRB, 48 h); details: Homo sapiens
786-0 (Renal cancer) = assay: NCI-60 screen (SRB, 48 h); details: Homo sapiens; for GI50: 786-0; for IC (TGI): 786-0, 48 h, read-out: TGI
EKVX (NSC lung cancer) = assay: NCI-60 screen (SRB, 48 h); details: Homo sapiens; for IC (TGI): 48 h, read-out: TGI
OVCAR-4 (Ovarian cancer) = assay: NCI-60 screen (SRB, 48 h); format: cell-based; details: Homo sapiens; for IC (TGI): OVCAR-4, 48 h; for GI50: read-out: GI50
[1] = test system: NCI-H460 (NSC lung cancer); assay: NCI-60 screen (SRB, 48 h); details: Homo sapiens; for GI50: NCI-H460; for IC (TGI): NCI-H460, 48 h, read-out: TGI
M14 (Melanoma) = assay: NCI-60 screen (SRB, 48 h); details: Homo sapiens; for GI50: M14; for IC (TGI): M14, 48 h, read-out: TGI
SK-OV-3 (Ovarian cancer) = assay: NCI-60 screen (SRB, 48 h); details: Homo sapiens; for GI50: SK-OV-3; for IC (TGI): SK-OV-3, 48 h, read-out: TGI; for CC50: SK-OV-3, read-out: LC50
SR (Leukemia) = assay: NCI-60 screen (SRB, 48 h); format: cell-based; details: Homo sapiens
HOP-92 (NSC lung cancer) = assay: NCI-60 screen (SRB, 48 h); details: Homo sapiens; for GI50: HOP-92; for IC (TGI): HOP-92, 48 h, read-out: TGI
Ovarian Cancer subpanel = assay: NCI-60 screen, subpanel; details: Homo sapiens; for IC (TGI): 48 h, read-out: TGI MG_MID; for GI50: read-out: GI50 MG_MID; for CC50: read-out: LC50 MG_MID
SK-MEL-28 (Melanoma) = assay: NCI-60 screen (SRB, 48 h); details: Homo sapiens; for GI50: SK-MEL-28; for IC (TGI): SK-MEL-28, 48 h, read-out: TGI
[2] = test system: MDA-MB-468 (Breast cancer); assay: cells; details: Homo sapiens; for GI50: MDA-MB-468; for IC (TGI): MDA-MB-468, 48 h, read-out: TGI
[3] = test system: NCI/ADR-RES (Ovarian cancer); assay: NCI-60 screen (SRB, 48 h); details: Homo sapiens; for IC (TGI): 48 h, read-out: TGI
T-47D (Breast cancer) = assay: NCI-60 screen (SRB, 48 h); details: Homo sapiens, T47D; for IC (TGI): 48 h, read-out: TGI
RPMI-8226 (Leukemia) = assay: NCI-60 screen (SRB, 48 h); details: Homo sapiens; for GI50: RPMI-8226; for IC (TGI): RPMI-8226, 48 h, read-out: TGI
MOLT-4 (Leukemia) = assay: NCI-60 screen (SRB, 48 h); details: Homo sapiens; for GI50: MOLT-4
SW-620 (Colon cancer) = assay: NCI-60 screen (SRB, 48 h); details: Homo sapiens; for GI50: SW-620; for IC (TGI): SW-620, 48 h, read-out: TGI
OVCAR-3 (Ovarian cancer) = details: OVCAR-3, 1 dose 10 µM

With `Cc1ccc(S(=O)(=O)OC[C@]23CCC(C)(C)C[C@H]2C2=CC[C@@H]4[C@@]5(C)CCCNC(C)(C)[C@@H]5CC[C@@]4(C)[C@]2(C)CC3)cc1` [Compound 15] the GI50 (HL-60(TB) (Leukemia)) was 1.85 µM, the IC (TGI) (HL-60(TB) (Leukemia); 48 h) was 4.06 µM and the IC (TGI) (Colon Cancer subpanel) was 3.25 µM. The GI50 (Colon Cancer subpanel) was 1.7 µM, the GI50 (U251 (CNS cancer)) was 1.74 µM and the IC (TGI) (U251 (CNS cancer)) was 3.29 µM. For the same molecule, the IC (TGI) (Breast cancer subpanel) was 3.63 µM, the GI50 (Breast cancer subpanel) was 1.75 µM and the CC50 (Breast cancer subpanel) was 9.14 µM. The GI50 (ACHN (Renal cancer)) was 1.68 µM, the IC (TGI) (ACHN (Renal cancer)) was 3.07 µM and the CC50 (ACHN (Renal cancer); read-out: LC50) was 5.58 µM. For the same molecule, the GI50 (RXF 393 (Renal cancer)) was 1.38 µM, the IC (TGI) (RXF 393 (Renal cancer)) was 2.78 µM and the CC50 (RXF 393 (Renal cancer)) was 5.59 µM. It also gave an IC (TGI) (LOX IMVI (Melanoma)) of 3 µM, an activity at 10 µM (LOX IMVI (Melanoma)) of -87.7% and a GI50 (LOX IMVI (Melanoma)) of 1.6 µM. It also gave a GI50 (SNB-75 (CNS cancer); SNB-75) of 1.48 µM, an IC (TGI) (SNB-75 (CNS cancer); SNB-75, 48 h, read-out: TGI) of 2.94 µM and a CC50 (SNB-75 (CNS cancer); SNB-75, read-out: LC50) of 5.85 µM. The GI50 (786-0 (Renal cancer)) was 1.85 µM, the IC (TGI) (786-0 (Renal cancer)) was 4.14 µM and the GI50 (EKVX (NSC lung cancer)) was 1.48 µM. The IC (TGI) (EKVX (NSC lung cancer)) was 2.96 µM, the IC (TGI) (OVCAR-4 (Ovarian cancer)) was 3.32 µM and the GI50 (OVCAR-4 (Ovarian cancer); OVCAR-4) was 1.69 µM. It also gave a GI50 [1] of 1.77 µM, an IC (TGI) [1] of 3.37 µM and a GI50 (M14 (Melanoma)) of 1.87 µM. The IC (TGI) (M14 (Melanoma)) was 3.58 µM, the GI50 (SK-OV-3 (Ovarian cancer)) was 1.76 µM and the IC (TGI) (SK-OV-3 (Ovarian cancer)) was 3.26 µM. It also gave a CC50 (SK-OV-3 (Ovarian cancer)) of 6.03 µM, a GI50 (SR (Leukemia)) of 0.34 µM and a CC50 (SR (Leukemia); read-out: LC50 (the source's name)) greater than 100 µM. For the same molecule, the GI50 (HOP-92 (NSC lung cancer)) was 1.35 µM, the IC (TGI) (HOP-92 (NSC lung cancer)) was 2.8 µM and the IC (TGI) (Ovarian Cancer subpanel) was 3.35 µM. The GI50 (Ovarian Cancer subpanel) was 1.74 µM, the CC50 (Ovarian Cancer subpanel) was 6.03 µM and the GI50 (SK-MEL-28 (Melanoma)) was 1.84 µM. It also gave an IC (TGI) (SK-MEL-28 (Melanoma)) of 3.38 µM, a GI50 [2] of 1.56 µM and an IC (TGI) [2] of 3.13 µM. The GI50 [3] was 1.89 µM, the IC (TGI) [3] was 3.93 µM and the GI50 (T-47D (Breast cancer)) was 1.67 µM. For the same molecule, the IC (TGI) (T-47D (Breast cancer)) was 3.31 µM, the GI50 (RPMI-8226 (Leukemia)) was 2.03 µM and the IC (TGI) (RPMI-8226 (Leukemia)) was 4.42 µM. For the same molecule, the GI50 (MOLT-4 (Leukemia)) was 1.55 µM, the CC50 (MOLT-4 (Leukemia); MOLT-4, read-out: LC50) was greater than 100 µM and the GI50 (SW-620 (Colon cancer)) was 1.73 µM. It also gave an IC (TGI) (SW-620 (Colon cancer)) of 3.36 µM.
With `C=C(C)[C@@H]1CCC=C2CC[C@]3(C)[C@H](CC[C@@H]4[C@@]5(C)CCCNC(C)(C)[C@@H]5CC[C@]43C)[C@H]21` [Compound 8] the IC (TGI) (Colon Cancer subpanel) was 3.02 µM, the GI50 (Colon Cancer subpanel) was 1.51 µM and the CC50 (Colon Cancer subpanel; read-out: LC50 MG_MID) was 5.87 µM. For the same molecule, the GI50 (U251 (CNS cancer)) was 1.76 µM, the IC (TGI) (U251 (CNS cancer)) was 3.26 µM and the CC50 (U251 (CNS cancer); U-251, read-out: LC50) was 6.07 µM. It also gave an IC (TGI) (Breast cancer subpanel) of 3.47 µM, a GI50 (Breast cancer subpanel) of 1.71 µM and a CC50 (Breast cancer subpanel) of 8.38 µM. The GI50 (ACHN (Renal cancer)) was 1.84 µM, the IC (TGI) (ACHN (Renal cancer)) was 3.26 µM and the GI50 (RXF 393 (Renal cancer)) was 1.74 µM. For the same molecule, the IC (TGI) (RXF 393 (Renal cancer)) was 3.32 µM, the CC50 (RXF 393 (Renal cancer)) was 6.33 µM and the “Growth % of the Most Sensitive Cell Lines” value (RXF 393 (Renal cancer); RXF 393, 1 dose 10 µM) was −91.86%. It also gave an IC (TGI) (LOX IMVI (Melanoma)) of 3.16 µM, an activity at 10 µM (LOX IMVI (Melanoma)) of -99.5% and a GI50 (LOX IMVI (Melanoma)) of 1.67 µM. The GI50 (786-0 (Renal cancer)) was 1.76 µM, the IC (TGI) (786-0 (Renal cancer)) was 3.51 µM and the GI50 (EKVX (NSC lung cancer)) was 1.66 µM. It also gave an IC (TGI) (EKVX (NSC lung cancer)) of 3.21 µM, an IC (TGI) (OVCAR-4 (Ovarian cancer)) of 3.39 µM and a GI50 (OVCAR-4 (Ovarian cancer); OVCAR-4) of 1.86 µM. The CC50 (OVCAR-4 (Ovarian cancer); OVCAR-4, read-out: LC50 (the source's name)) was 6.17 µM, the GI50 [1] was 1.22 µM and the IC (TGI) [1] was 2.81 µM. It also gave a GI50 (M14 (Melanoma)) of 1.89 µM, an IC (TGI) (M14 (Melanoma)) of 3.38 µM and a GI50 (SK-OV-3 (Ovarian cancer)) of 1.81 µM. It also gave an IC (TGI) (SK-OV-3 (Ovarian cancer)) of 3.37 µM, a CC50 (SK-OV-3 (Ovarian cancer)) of 6.28 µM and a GI50 (HOP-92 (NSC lung cancer)) of 1.37 µM. The IC (TGI) (HOP-92 (NSC lung cancer)) was 2.77 µM, the CC50 (HOP-92 (NSC lung cancer); HOP-92, read-out: LC50) was 5.61 µM and the IC (TGI) (Ovarian Cancer subpanel) was 3.5 µM. The GI50 (Ovarian Cancer subpanel) was 1.84 µM, the CC50 (Ovarian Cancer subpanel) was 6.78 µM and the GI50 (SK-MEL-28 (Melanoma)) was 1.81 µM. It also gave an IC (TGI) (SK-MEL-28 (Melanoma)) of 3.35 µM, a CC50 (SK-MEL-28 (Melanoma); SK-MEL-28, read-out: LC50) of 6.18 µM and a GI50 [2] of 1.78 µM. The IC (TGI) [2] was 3.43 µM, the CC50 ([2]; MDA-MB-468, read-out: LC50) was 6.6 µM and the “Growth % of the Most Sensitive Cell Lines” value (OVCAR-3 (Ovarian cancer)) was −93.30%. It also gave a GI50 [3] of 1.98 µM, an IC (TGI) [3] of 3.8 µM and a CC50 ([3]; read-out: LC50) of 7.3 µM. The GI50 (T-47D (Breast cancer)) was 1.72 µM, the IC (TGI) (T-47D (Breast cancer)) was 3.47 µM and the CC50 (T-47D (Breast cancer); read-out: LC50) was 7 µM. The GI50 (RPMI-8226 (Leukemia)) was 2.26 µM, the IC (TGI) (RPMI-8226 (Leukemia)) was 4.73 µM and the GI50 (MOLT-4 (Leukemia)) was 1.09 µM. It also gave a GI50 (SW-620 (Colon cancer)) of 1.92 µM and an IC (TGI) (SW-620 (Colon cancer)) of 3.75 µM.
